Measured values: patent publication US9670219B2, “Tetrahydrooxepinopyridine compound” (ASTELLAS PHARMA INC., priority 2015, dated 2017)
Where a name gives a salt, the structure may show the parent alone.

Assays:
human α7 nACh receptor [1] = target: T1, human α7 nACh receptor (Homo sapiens, UniProt P36544); assay: Evaluation for human α7 nACh receptor using FLIPR (intracellular calcium response, PAM activity); format: cell-based; settings: for Max: maximum response of test drug with agonist PNU-282987, relative to maximum response of PNU-120596 = 100%; for EC20: test drug concentration giving 20% response, maximum response of PNU-120596 with agonist PNU-282987 (0.6 μM) = 100%, HEK293 cells co-expressing human α7 nACh receptor/rat RIC3
T1 construct: expressed in transfected cells; host or cells: HEK293 cells (ATCC CRL-1573), transient co-transfection by electroporation with rat RIC3 (NM_001115045.3)
T1 sequence (P36544 23-502): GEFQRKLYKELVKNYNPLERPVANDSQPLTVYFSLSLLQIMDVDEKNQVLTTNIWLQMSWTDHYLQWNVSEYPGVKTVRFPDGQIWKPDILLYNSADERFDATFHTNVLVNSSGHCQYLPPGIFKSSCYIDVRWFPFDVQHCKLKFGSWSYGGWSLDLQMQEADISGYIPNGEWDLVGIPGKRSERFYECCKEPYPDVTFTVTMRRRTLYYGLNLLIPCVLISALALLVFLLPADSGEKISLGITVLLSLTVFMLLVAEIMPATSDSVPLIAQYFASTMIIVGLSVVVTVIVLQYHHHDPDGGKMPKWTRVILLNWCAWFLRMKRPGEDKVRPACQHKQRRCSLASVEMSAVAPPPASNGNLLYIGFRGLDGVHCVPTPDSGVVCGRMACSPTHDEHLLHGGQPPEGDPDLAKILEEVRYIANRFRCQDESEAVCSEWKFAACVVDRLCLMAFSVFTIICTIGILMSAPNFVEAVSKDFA
Protocol: Assay buffer: HBSS buffer containing 1.25 mM probenecid.
The PAM activity of a test drug was evaluated in terms of Ca^2+ dye-based fluorescence intensity for an intracellular calcium response in the presence of an α7 nACh receptor-selective agonist PNU-282987 (CAS registry number: 123464-89-1, Tocris) using a FLIPR tetra (Molecular Devices).
In the case where a concentration-response curve has been obtained in which the logarithm of a concentration of a test drug is on the abscissa and the ratio of a response (hereinafter, also referred to as calcium response) is on the ordinate, this test drug has been determined to have a PAM activity.
In this test, the agonist (PNU-282987) elicited a calcium response only in the presence of PAM (PNU-120596).
The coding sequence of a human α7 nACh receptor (accession number: NM_000746.5) was subcloned into a pCEP4 vector (Life Technologies). The coding sequence of a rat chaperone protein RIC3 (accession number: NM_001115045.3) was subcloned into a pcDNA3.1/Hygro (+) vector (Life Technologies). The resulting constructs were transfected into HEK293 cells (ATCC number: CRL-1573) by an electroporation method using Neon (Life Technologies).
The transiently expressing cells obtained in the manner described above were seeded at a density of 8×10^3 cells/well onto a 384-well plate (Becton Dickinson) and allowed to stand overnight at 37° C. DMEM+10% FBS was used as a medium.
On the next day, the medium was removed, and Fluo4-AM (Dojindo) prepared using an assay buffer was applied, followed by allowing to stand for 1 hour. The test drug was dissolved in DMSO and then made to a final concentration of 0.03 to 100 μM (3-fold dilutions) with an assay buffer. Similarly, PNU-120596 which is a known PAM was made to a final concentration of 0.003 to 10 μM (3-fold dilutions). PNU-282987 which is an agonist was made to a final concentration of 0.6 μM. Thereafter, the test drug was applied to the cells using a FLIPR tetra, the agonist (PNU-282987) was added 5 minutes later, and the fluorescence intensity at that time was detected.
As a control, using (1) a group with neither addition of a test drug, PAM (PNU-120596) nor that of agonist (PNU-282987), the response thereof was set to 0%. Using (2) a group with the addition of PAM (PNU-120596) and agonist (PNU-282987), the maximum response thereof was set to 100%.
To quantitatively compare the PAM activity of the test drug, an EC20 value and a Max value were used as activity indicators. […] The EC20 value was calculated using a non-linear regression analysis from the concentration-response curve of a human α7 nACh receptor with the addition of a test drug. The Max value refers to a maximum response value. The Max value is expressed in terms of % value of the maximum response of a test drug in the presence of an agonist (PNU-282987) relative to when the maximum response of PAM (PNU-120596) in the presence of an agonist (PNU-282987) is set to 100%.

human α7 nACh receptor [2] = target: T1, human α7 nACh receptor; assay: Electrophysiological evaluation for human α7 nACh receptor (Qpatch HTX or Qube current response); format: cell-based; design: key: positive: an inward current response specific to a human α7 nACh receptor was obtained when 3 μM of a test drug had been added; negative: a specific current response was not observed; settings: 3 μM test drug added simultaneously with 100 μM AChCl; voltage-clamped at −90 mV
Protocol: The PAM activity of a test drug was evaluated by a current response in the presence of an α7 nACh receptor agonist Acetylcholine chloride (Sigma) (hereinafter, also referred to as AChCl) using Qpatch HTX (Biolin Scientific) or Qube (Biolin Scientific). This test cannot detect a small current response of AChCl alone. The current response can be detected only in the case where the test drug has a PAM activity.
Extracellular fluid (pH 7.4): NaCl 145 mM, KCl 4 mM, HEPES 10 mM, CaCl2 2 mM, MgCl2 1 mM.
Intracellular fluid (pH 7.2): KF 120 mM, KCl 20 mM, EGTA 0.1 mM, HEPES 10 mM, MgCl2 2 mM.
The cells were obtained in the same manner as in Test Example 1.
The response of a human α7 nACh receptor with the addition of a test drug was measured by the following experiment. Transient expression cells obtained by the method described above were subjected to the experiment after allowing to stand overnight at 37° C. The test drug was dissolved in DMSO, and then made to a final concentration of 3 μM using extracellular fluid. The agonist AChCl was made to a final concentration of 100 μM. The membrane potential was voltage-clamped at −90 mV. The current response was measured by multi-hole mode at the time of simultaneous addition of the test drug and AChCl to the cells, using QPatch HTX or Qube.
As a result of the tests above, the case where an inward current response specific to a human α7 nACh receptor was obtained when 3 μM of a test drug had been added was determined as positive, and the case where a specific current response was not observed was determined as negative. It should be noted that, when the agonist concentration is 0, the current response was not observed even with the addition of a test drug.

SMILES | Max (human α7 nACh receptor [1]) [%] | EC20 (human α7 nACh receptor [1]) [µM] | Dat. 1 (Determination) (human α7 nACh receptor [2]) | other results
CC1(C)CN(c2cc(C(=O)Nc3cccnn3)c3c(n2)CCOCC3)CC(C)(C)O1 [Ex 9, N-(pyridazin-3-yl)-2-(2,2,6,6-tetramethylmorpholin-4-yl)-5,6,8,9-tetrahydrooxepino[4,5-b]pyridine-4-carboxamide hydrochloride] | 69.3 | 3.52 | – | –
COc1ccc(NC(=O)c2cc(N3CCC[C@H]3C)nc3c2CCOCC3)nn1 [Ex 36] | – | – | positive | –
O=C(Nc1cccnn1)c1cc(N2CCC(F)CC2)nc2c1CCOCC2 [Ex 50] | – | – | positive | –
C[C@@H]1CN(c2cc(C(=O)Nc3ccc(Cl)cn3)c3c(n2)CCOCC3)C[C@H](C)O1 [Ex 18, N-(5-chloropyridin-2-yl)-2-[(2R,6S)-2,6-dimethylmorpholin-4-yl]-5,6,8,9-tetrahydrooxepino[4,5-b]pyridine-4-carboxamide hydrochloride] | 79.2 | 1.02 | positive | –
O=C(Nc1cccnn1)c1cc(N2CCC[C@@H](C(F)(F)F)C2)nc2c1CCOCC2 [Ex 7, N-(pyridazin-3-yl)-2-[(3R)-3-(trifluoromethyl)piperidin-1-yl]-5,6,8,9-tetrahydrooxepino[4,5-b]pyridine-4-carboxamide fumarate] | 94.8 | 0.512 | – | –
O=C(Nc1ccc(Cl)cn1)c1cc(N2CCC[C@H](F)C2)nc2c1CCOCC2 [Ex 76, N-(5-chloropyridin-2-yl)-2-[(3S)-3-fluoropiperidin-1-yl]-5,6,8,9-tetrahydrooxepino[4,5-b]pyridine-4-carboxamide benzenesulfonate] | – | – | positive | –
CO[C@H]1CCN(c2cc(C(=O)Nc3cccc(C#N)c3)c3c(n2)CCOCC3)C1 [Ex 48, N-(3-cyanophenyl)-2-[(3S)-3-methoxypyrrolidin-1-yl]-5,6,8,9-tetrahydrooxepino[4,5-b]pyridine-4-carboxamide hydrochloride] | – | – | positive | –
O=C(Nc1cccnn1)c1cc(N2CCC[C@H](C(F)(F)F)C2)nc2c1CCOCC2 [Ex 1, N-(pyridazin-3-yl)-2-[(3S)-3-(trifluoromethyl)piperidin-1-yl]-5,6,8,9-tetrahydrooxepino[4,5-b]pyridine-4-carboxamide fumarate] | 99.8 | 2.72 | – | –
C[C@H]1CCCCN1c1cc(C(=O)Nc2cnccn2)c2c(n1)CCOCC2 [Ex 70, 2-[(2S)-2-methylpiperidin-1-yl]-N-(pyrazin-2-yl)-5,6,8,9-tetrahydrooxepino[4,5-b]pyridine-4-carboxamide hydrochloride] | – | – | positive | –
C[C@H]1CCCCN1c1cc(C(=O)Nc2cccnn2)c2c(n1)CCOCC2 [Ex 69, 2-[(2S)-2-methylpiperidin-1-yl]-N-(pyridazin-3-yl)-5,6,8,9-tetrahydrooxepino[4,5-b]pyridine-4-carboxamide hydrochloride] | – | – | positive | –
Cc1ncc(NC(=O)c2cc(N3CCC[C@H]3C)nc3c2CCOCC3)nc1C [Ex 46] | – | – | positive | –
Cc1ncc(NC(=O)c2cc(N3CCC[C@@H]3C)nc3c2CCOCC3)nc1C [Ex 55] | – | – | positive | –
Cc1cncc(NC(=O)c2cc(N3CCC[C@@H]3C)nc3c2CCOCC3)n1 [Ex 40, N-(6-methylpyrazin-2-yl)-2-[(2S)-2-methylpyrrolidin-1-yl]-5,6,8,9-tetrahydrooxepino[4,5-b]pyridine-4-carboxamide hydrochloride] | – | – | positive | –
O=C(Nc1ccc(Cl)cn1)c1cc(N2CCC(F)CC2)nc2c1CCOCC2 [Ex 51, N-(5-chloropyridin-2-yl)-2-(4-fluoropiperidin-1-yl)-5,6,8,9-tetrahydrooxepino[4,5-b]pyridine-4-carboxamide] | – | – | positive | –
C[C@@H]1CN(c2cc(C(=O)Nc3ccc(F)cn3)c3c(n2)CCOCC3)C[C@H](C)O1 [Ex 12, 2-[(2R,6S)-2,6-dimethylmorpholin-4-yl]-N-(5-fluoropyridin-2-yl)-5,6,8,9-tetrahydrooxepino[4,5-b]pyridine-4-carboxamide] | 96.9 | 4.35 | – | –
O=C(N[C@H]1CN2CCC1CC2)c1ccc(Cl)cc1 [PNU-282987, N-(3R)-1-azabicyclo[2.2.2]octo-3-yl-4-chlorobenz amide, reference compound] | – | – | – | calcium response, substance alone (human α7 nACh receptor [1]; agonist alone or test compound alone): not elicited
